Data published in patent US20070179060A1, “6-(Poly-substituted aryl)-4-aminopicolinates and their use as herbicides” (priority 2006, published 2007).

How the values were obtained:
Type in all cases: in vivo
Papaver rhoeas = assay: Postemergence herbicidal safening in cereal crops; conditions: Table 5, applied alone, after 3 weeks
Protocol: (§1) Seeds of the desired test plant species were planted in Sun Gro MetroMix® 306 planting mixture, which typically has a pH of 6.0 to 6.8 and an organic matter content of about 30 percent, in plastic pots with a surface area of 103.2 square centimeters. When required to ensure good germination and healthy plants, a fungicide treatment and/or other chemical or physical treatment was applied. The plants were grown for 7-36 days in a greenhouse with an approximate 14 hour photoperiod which was maintained at about 18° C. during the day and 17° C. during the night. Nutrients and water were added on a regular basis and supplemental lighting was provided with overhead metal halide 1000-Watt lamps as necessary. The plants were employed for testing when they reached the second or third true leaf stage. Treatments consisted of compound 42 and cloquintocet-mexyl alone and in combination. Weighed amounts were placed in 25 mL glass vials and dissolved in a volume of 97:3 v/v acetone/DMSO to obtain 9 mg ai/mL stock solutions. […] A dilution solution was prepared by mixing 1 volume of 97:3 v/v acetone/DMSO and 2 volumes of an aqueous mixture containing acetone, water, isopropyl alcohol, DMSO, Agri-dex crop oil concentrate, and Triton® X-77 surfactant in a 64.7:26.0:6.7:2.0:0.7:0.01 v/v ratio. Compound requirements are based upon a 12 mL application volume at a rate of 187 L/ha. […] Formulated compounds were applied to the plant material with an overhead Mandel track sprayer equipped with a […] nozzles calibrated to deliver 187 L/ha over an application area of 0.503 square meters at a spray height of 18 inches (43 cm) above average plant canopy height. Control plants were sprayed in the same manner with the solvent blank. The treated plants and control plants were placed in a greenhouse as described above and watered by sub-irrigation to prevent wash-off of the test compounds. After 3 weeks the condition of the test plants as compared with that of the untreated plants was determined visually and scored on a scale of 0 to 100 percent where 0 corresponds to no injury and 100 corresponds to complete kill. Colby's equation was used to determine the herbicidal effects expected from the mixtures (Colby, S. R. 1967. Calculation of the synergistic and antagonistic response of herbicide combinations. Weeds 15:20-22.). The following equation was used to calculate the expected activity of mixtures containing two active ingredients, A and B: Expected=A+B-(A×B/100) • A=observed efficacy of active ingredient A at the same concentration as used in the mixture. • B=observed efficacy of active ingredient B at the same concentration as used in the mixture.

[1] = system: Triticum aestivum (spring wheat); assay: Postemergence herbicidal safening in cereal crops; conditions: Table 5, applied alone, after 3 weeks
Protocol: as §1

[2] = system: Hordeum vulgare (winter barley); assay: Postemergence herbicidal safening in cereal crops; conditions: Table 5, applied alone, after 3 weeks
Protocol: as §1

Galium aparine = assay: Postemergence herbicidal safening in cereal crops; conditions: Table 5, applied alone, after 3 weeks
Protocol: as §1

Matricaria chamomilla = assay: Postemergence herbicidal activity of mixtures in cereal crops; conditions: after 3 weeks
Protocol: (§2) Seeds of the desired test plant species were planted and reared as described in “Evaluation of Postemergence Herbicidal Safening in Cereal Crops” (section 37).
(§3) Treatments consisted of compound (as listed in Tables 6 and 7), fluroxypyr methylheptyl ester (MHE), and clopyralid monoethanolamine (MEA) salt alone and in combination. Weighed amounts were placed in 25 mL glass vials and dissolved in a volume of 97:3 v/v acetone/DMSO to obtain 4.5 mg ai/mL stock solutions. […] The concentrated stock solutions were diluted to 1.5 mg ai/mL with the addition of 2 volumes of an aqueous mixture containing acetone, water, isopropyl alcohol, DMSO, Agri-dex crop oil concentrate, and Triton® X-77 surfactant in a 64.7:26.0:6.7:2.0:0.7:0.01 v/v ratio. A dilution solution was prepared by mixing 1 volume of 97:3 v/v acetone/DMSO and 2 volumes of an aqueous mixture containing acetone, water, isopropyl alcohol, DMSO, Agri-dex crop oil concentrate, and Triton® X-77 surfactant in a 64.7:26.0:6.7:2.0:0.7:0.01 v/v ratio. Compound requirements are based upon a 12 mL application volume at a rate of 187 L/ha. Spray solutions of fluroxypyr MHE, clopyralid MEA, and experimental compound mixtures were prepared by adding the stock solutions to the appropriate amount of dilution solution to form 12 mL spray solution with active ingredients in two- and three-way combinations. Formulated compounds were applied to the plant material with an overhead Mandel track sprayer equipped with a 8002E nozzles calibrated to deliver 187 L/ha over an application area of 0.503 square meters at a spray height of 18 inches (43 cm) above average plant canope. Control plants were sprayed in the same manner with the solvent blank.
(§4) The treated plants and control plants were placed in a greenhouse as described above and watered by sub-irrigation to prevent wash-off of the test compounds. After 3 weeks the condition of the test plants as compared with that of the control plants was determined visually and scored on a scale of 0 to 100 percent where 0 corresponds to no injury and 100 corresponds to complete kill.
(§5) Colby's equation was used to determine the herbicidal effects expected from the mixtures (Colby, S. R. 1967. Calculation of the synergistic and antagonistic response of herbicide combinations. Weeds 15:20-22.).
(§6) The following equation was used to calculate the expected activity of mixtures containing two active ingredients, A and B: Expected=A+B−(A×B/100) • A=observed efficacy of active ingredient A at the same concentration as used in the mixture. • B=observed efficacy of active ingredient B at the same concentration as used in the mixture.
(§7) The following equation was used to calculate the expected activity of mixtures containing three active ingredients, A, B, and C: Expected=A+B+C−(A×B+B×C+A×C)/100+(A×B×C)/10000 • A=observed efficacy of active ingredient A at the same concentration as used in the mixture. • B=observed efficacy of active ingredient B at the same concentration as used in the mixture. • C=observed efficacy of active ingredient C at the same concentration as used in the mixture.

[3] = system: Triticum aestivum (spring wheat); assay: as above; conditions: after 3 weeks
Protocol: as §2, §3, §4, §5, §6, §7

[4] = system: Hordeum vulgare (winter barley); assay: as above; conditions: after 3 weeks
Protocol: as §2, §3, §4, §5, §6, §7

[5] = Table 7, applied alone, 35 g ai/ha
[6] = Table 7, applied alone, 70 g ai/ha
[7] = Table 6, applied alone, 35 g ai/ha

| SMILES | % Control PAPRH Ob (Papaver rhoeas; 35 g ai/ha) | % Control PAPRH Ob (Papaver rhoeas; 70 g ai/ha) | % Control TRZAS Ob ([1]; 35 g ai/ha) | % Control TRZAS Ob ([1]; 70 g ai/ha) | % Control HORVW Ob ([2]; 35 g ai/ha) | % Control HORVW Ob ([2]; 70 g ai/ha) | % Control GALAP Ob (Galium aparine; 35 g ai/ha) | % Control GALAP Ob (Galium aparine; 70 g ai/ha) | % Control MATCH Ob (Matricaria chamomilla; [5]) | % Control MATCH Ob (Matricaria chamomilla; [6]) | % Control TRZAS Ob [3, 5] | % Control TRZAS Ob [3, 6] | % Control HORVW Ob [4, 5] | % Control HORVW Ob [4, 6] | % Control MATCH Ob (Matricaria chamomilla; [7]) | % Control TRZAS Ob [3, 7] | % Control HORVW Ob [4, 7] |
| --- | --- | --- | --- | --- | --- | --- | --- | --- | --- | --- | --- | --- | --- | --- | --- | --- | --- |
| COC(=O)c1nc(-c2ccc(Cl)c(OC)c2F)cc(N)c1Cl [Compound 42, 4-Amino-3-chloro-6-(4-chloro-2-fluoro-3-methoxyphenyl)pyridine-2-carboxylic acid methyl ester] | 100% | 100% | 35% | 40% | 0% | 15% | 99% | 100% | 50% | 60% | 30% | 45% | 25% | 30% | – | – | – |
| COC(=O)c1nc(-c2c(F)cc(Cl)c(OC)c2F)cc(N)c1Cl [Compound 58, 4-Amino-3-chloro-6-(4-chloro-2,6-difluoro-3-methoxyphenyl)pyridine-2-carboxylic acid, methyl ester] | – | – | – | – | – | – | – | – | – | – | – | – | – | – | 0% | 35% | 15% |
